Laboratory results from US20150218212A1, “FLUORINATED EPOXYKETONE-BASED TETRAPEPTIDE COMPOUNDS AND USES THEREOF AS PROTEASOME INHIBITORS” (FLUORINOV PHARMA INC., priority 2012, published 2015).

Tests used:
Assay type in all cases: cell-based, human
K-562 = test: NCI screening panel, K-562 (Leukemia)
Experimental: (§1) Representative compounds of Formula I were screened using the National Cancer Institute (NCI) screening panel, which consists of a panel of human tumor cell lines, representing leukemia, melanoma, and cancers of the lung, colon, ovary, breast, prostate and renal system.
(§2) After 24 h, two plates of each cell line are fixed in situ with TCA, to represent a measurement of the cell population for each cell line at the time of drug addition (Tz). Experimental drugs are solubilised in dimethyl sulfoxide at 400-fold the desired final maximum test concentration and stored frozen prior to use. At the time of drug addition, an aliquot of frozen concentrate is thawed and diluted to twice the desired final maximum test concentration with complete medium containing 50 μg/mL gentamicin. Additional four, 10-fold or ½ log serial dilutions are made to provide a total of five drug concentrations plus control. Aliquots of 100 μl of these different drug dilutions are added to the appropriate microtiter wells already containing 100 μl of medium, resulting in the required final drug concentrations.
(§3) Following drug addition, the plates are incubated for an additional 48 h at 37° C., 5% CO2, 95% air, and 100% relative humidity. For adherent cells, the assay is terminated by the addition of cold TCA (trichloroacetic acid). Cells are fixed in situ by the gentle addition of 50 μl of cold 50% (w/v) TCA (final concentration, 10% TCA) and incubated for 60 minutes at 4° C. The supernatant is discarded, and the plates are washed five times with tap water and air dried. Sulforhodamine B (SRB) solution (100 μl) at 0.4% (w/v) in 1% acetic acid is added to each well, and plates are incubated for 10 minutes at room temperature. After staining, unbound dye is removed by washing five times with 1% acetic acid and the plates are air dried. Bound stain is subsequently solubilised with 10 mM trizma base, and the absorbance is read on an automated plate reader at a wavelength of 515 nm. For suspension cells, the methodology is the same except that the assay is terminated by fixing settled cells at the bottom of the wells by gently adding 50 μl of 80% TCA (final concentration, 16% TCA). Using the seven absorbance measurements [time zero, (Tz), control growth, (C), and test growth in the presence of drug at the five concentration levels (Ti)], the percentage growth is calculated at each of the drug concentrations levels. Percentage growth inhibition is calculated as: [(Ti−Tz)/(C−Tz)]×100 for concentrations for which Ti>/=Tz and [(Ti−Tz)/Tz]×100 for concentrations for which Ti<Tz.
(§4) Three dose response parameters are calculated for each experimental agent. Growth inhibition of 50% (GI50) is calculated from [(Ti−Tz)/(C−Tz)]×100=50, which is the drug concentration resulting in a 50% reduction in the net protein increase (as measured by SRB staining) in control cells during the drug incubation. The drug concentration resulting in total growth inhibition (TGI) is calculated from Ti=Tz. The LC50 (concentration of drug resulting in a 50% reduction in the measured protein at the end of the drug treatment as compared to that at the beginning) indicating a net loss of cells following treatment is calculated from [(Ti−Tz)/Tz]×100=−50. Values are calculated for each of these three parameters if the level of activity is reached. However, if the effect is not reached or is exceeded, the value for that parameter is expressed as greater or less than the maximum or minimum concentration tested.

MOLT-4 = test: NCI screening panel, MOLT-4 (Leukemia)
Experimental: as §1, §2, §3, §4

HCC-2998 = test: NCI screening panel, HCC-2998 (Colon Cancer)
Experimental: as §1, §2, §3, §4

HCT-116 = test: NCI screening panel, HCT-116 (Colon Cancer)
Experimental: as §1, §2, §3, §4

SF-295 = test: NCI screening panel, SF-295 (CNS Cancer)
Experimental: as §1, §2, §3, §4

MALME-3M = test: NCI screening panel, MALME-3M (Melanoma)
Experimental: as §1, §2, §3, §4

SK-MEL-28 = test: NCI screening panel, SK-MEL-28 (Melanoma)
Experimental: as §1, §2, §3, §4

OVCAR-3 = test: NCI screening panel, OVCAR-3 (Ovarian Cancer)
Experimental: as §1, §2, §3, §4

SK-OV-3 = test: NCI screening panel, SK-OV-3 (Ovarian Cancer)
Experimental: as §1, §2, §3, §4

ACHN = test: NCI screening panel, ACHN (Renal Cancer)
Experimental: as §1, §2, §3, §4

MDA-MB-231/ATCC = test: NCI screening panel, MDA-MB-231/ATCC (Breast Cancer)
Experimental: as §1, §2, §3, §4

T-47D = test: NCI screening panel, T-47D (Breast Cancer)
Experimental: as §1, §2, §3, §4

In the case of CC(C)C[C@H](NC(=O)[C@H](COC(F)F)NC(=O)[C@H](COC(F)F)NC(=O)[C@H](CCc1ccccc1)NC(=O)CN1CCOCC1)C(=O)[C@@]1(C)CO1 [Example 7, (2S)-N-[(1S)-1-(difluoromethoxymethyl)-2-[[(1S)-1-(difluoromethoxymethyl)-2-[[(1S)-3-methyl-1-[(2R)-2-methyloxirane-2-carbo-nyl]butyl]amino]-2-oxo-ethyl]amino]-2-oxo-ethyl]-2-[(2-morpholinoacetyl)amino]-4-phenyl-butanamide], the Log10GI50 (K-562) is reported as −7.37, the Log10LC50 (K-562) is reported as over −4.00 and the Log10TGI50 (K-562) is reported as over −4.00. It also gave a Log10GI50 (MOLT-4) of −7.71, a Log10LC50 (MOLT-4) of over −4.00 and a Log10TGI50 (MOLT-4) of −6.85. The Log10GI50 (HCC-2998) was −7.60, the Log10LC50 (HCC-2998) was −6.55 and the Log10TGI50 (HCC-2998) was −7.21. For the same compound, the Log10GI50 (HCT-116) was under −8.00, the Log10LC50 (HCT-116) was over −4.00 and the Log10TGI50 (HCT-116) was −6.78. The Log10GI50 (SF-295) was −7.60, the Log10LC50 (SF-295) was −6.15 and the Log10TGI50 (SF-295) was −6.97. It also gave a Log10GI50 (MALME-3M) of −7.39, a Log10LC50 (MALME-3M) of over −4.00 and a Log10TGI50 (MALME-3M) of −6.75. For the same compound, the Log10GI50 (SK-MEL-28) was −7.44, the Log10TGI50 (SK-MEL-28) was over −4.00 and the Log10GI50 (OVCAR-3) was −7.64. It also gave a Log10LC50 (OVCAR-3) of −6.40, a Log10TGI50 (OVCAR-3) of −7.24 and a Log10GI50 (SK-OV-3) of −6.94. The Log10LC50 (SK-OV-3) was over −4.00, the Log10TGI50 (SK-OV-3) was −5.46 and the Log10GI50 (ACHN) was −6.31. For the same compound, the Log10LC50 (ACHN) was over −4.00, the Log10TGI50 (ACHN) was over −4.00 and the Log10GI50 (MDA-MB-231/ATCC) was −7.64. The Log10LC50 (MDA-MB-231/ATCC) was −4.92, the Log10TGI50 (MDA-MB-231/ATCC) was −7.14 and the Log10GI50 (T-47D) was −7.85. The Log10LC50 (T-47D) was over −4.00 and the Log10TGI50 (T-47D) was −7.32.
CC(C)C[C@H](NC(=O)[C@H](Cc1ccccc1)NC(=O)[C@H](COC(F)F)NC(=O)[C@H](COC(F)F)NC(=O)CN1CCOCC1)C(=O)[C@@]1(C)CO1 [Example 11, (2S)-2-[[(2S)-3-(difluoromethoxy)-2-[[(2S)-3-(difluoromethoxy)-2-[(2-morpholinoacetyl)-amino]propanoyl]amino]propanoyl]amino]-N-[(1S)-3-methyl-1-[(2R)-2-methyloxirane-2-carbonyl]butyl]-3-phenyl-propanamide] was tested, and the Log10GI50 (K-562) was −7.36, the Log10LC50 (K-562) was over −4.00 and the Log10TGI50 (K-562) was over −4.00. It also gave a Log10GI50 (MOLT-4) of under −8.00, a Log10LC50 (MOLT-4) of over −4.00 and a Log10TGI50 (MOLT-4) of −6.83. For the same compound, the Log10GI50 (HCC-2998) was −7.66, the Log10LC50 (HCC-2998) was −6.95 and the Log10TGI50 (HCC-2998) was −7.33. For the same compound, the Log10GI50 (HCT-116) was under −8.00, the Log10LC50 (HCT-116) was −4.54 and the Log10TGI50 (HCT-116) was −7.06. For the same compound, the Log10GI50 (SF-295) was −5.96, the Log10LC50 (SF-295) was −5.17 and the Log10TGI50 (SF-295) was −5.56. For the same compound, the Log10GI50 (MALME-3M) was −7.14, the Log10LC50 (MALME-3M) was over −4.00 and the Log10TGI50 (MALME-3M) was −6.30. For the same compound, the Log10GI50 (SK-MEL-28) was −7.20, the Log10LC50 (SK-MEL-28) was over −4.00 and the Log10TGI50 (SK-MEL-28) was −5.55. It also gave a Log10GI50 (OVCAR-3) of −7.66, a Log10LC50 (OVCAR-3) of −6.82 and a Log10TGI50 (OVCAR-3) of −7.31. It also gave a Log10GI50 (SK-OV-3) of −6.85, a Log10LC50 (SK-OV-3) of over −4.00 and a Log10TGI50 (SK-OV-3) of −4.84. For the same compound, the Log10GI50 (ACHN) was −6.40, the Log10LC50 (ACHN) was over −4.00 and the Log10TGI50 (ACHN) was over −4.00. The Log10GI50 (MDA-MB-231/ATCC) was −7.56, the Log10LC50 (MDA-MB-231/ATCC) was −4.39 and the Log10TGI50 (MDA-MB-231/ATCC) was −6.94. For the same compound, the Log10GI50 (T-47D) was −7.71 and the Log10TGI50 (T-47D) was over −4.00.
CC(C)C[C@H](NC(=O)[C@H](COC(F)F)NC(=O)[C@H](COC(F)F)NC(=O)[C@H](COC(F)F)NC(=O)CN1CCOCC1)C(=O)[C@@]1(C)CO1 [Example 17, (2S)-3-(difluoromethoxy)-N-[(1S)-1-(difluoromethoxymethyl)-2-[[(1S)-1-(difluoro-methoxymethyl)-2-[[(1S)-3-methyl-1-[(2R)-2-methyloxirane-2-carbonyl]butyl]amino]-2-oxo-ethyl]amino]-2-oxo-ethyl]-2-[(2-mor-pholinoacetyl)amino]-propanamide] was tested, and the Log10GI50 (K-562) was −6.77, the Log10TGI50 (K-562) was over −4.00 and the Log10GI50 (MOLT-4) was −7.42. It also gave a Log10LC50 (MOLT-4) of over −4.00, a Log10TGI50 (MOLT-4) of −6.41 and a Log10GI50 (HCC-2998) of −6.74. It also gave a Log10LC50 (HCC-2998) of −6.19, a Log10TGI50 (HCC-2998) of −6.46 and a Log10GI50 (HCT-116) of −7.45. For the same compound, the Log10LC50 (HCT-116) was −4.50, the Log10TGI50 (HCT-116) was −6.60 and the Log10GI50 (SF-295) was −6.82. For the same compound, the Log10LC50 (SF-295) was −5.37, the Log10TGI50 (SF-295) was −6.20 and the Log10GI50 (MALME-3M) was −6.76. It also gave a Log10LC50 (MALME-3M) of over −4.00, a Log10TGI50 (MALME-3M) of −6.09 and a Log10GI50 (SK-MEL-28) of −6.97. The Log10LC50 (SK-MEL-28) was over −4.00, the Log10TGI50 (SK-MEL-28) was −5.69 and the Log10GI50 (OVCAR-3) was −7.30. For the same compound, the Log10LC50 (OVCAR-3) was −6.05, the Log10TGI50 (OVCAR-3) was −6.65 and the Log10GI50 (SK-OV-3) was −6.26. The Log10LC50 (SK-OV-3) was over −4.00, the Log10TGI50 (SK-OV-3) was over −4.00 and the Log10GI50 (ACHN) was −5.55. For the same compound, the Log10LC50 (ACHN) was over −4.00, the Log10TGI50 (ACHN) was over −4.00 and the Log10GI50 (MDA-MB-231/ATCC) was −6.87. The Log10LC50 (MDA-MB-231/ATCC) was −4.25, the Log10TGI50 (MDA-MB-231/ATCC) was −6.10 and the Log10GI50 (T-47D) was −7.10. It also gave a Log10LC50 (T-47D) of over −4.00 and a Log10TGI50 (T-47D) of −6.33.
